Broadly, the TD50 is the dose at which the toxic effect under study appears in half of the subjects.

Here are results for two compounds from patent US5232917A, “Methods, compositions, and compounds for allosteric modulation of the GABA receptor by members of the androstane and pregnane series” (priority 1991, dated 1993).

In data set [1] the test system is GABA receptor-chloride ionophore complex (GR complex). Nature of the data set: Dissociation kinetics of [35S]TBPS in rat cerebral cortical membranes. As to conditions: alphaxalone 300 nM, 3α-OH-DHP 20 nM. It is filed as binding.
A further data set deals with BZ receptor. Nature of the data set: [3H]flunitrazepam binding to the BZ receptor in rat hippocampal homogenates. The note with it: pentobarbital 1.0 mM; 0.25 nM [3H]FLU; no GABA; FIG. 3.
Data set [2] concerns GABA receptor complex (36Cl uptake, cerebral cortical synaptoneurosomes). Put plainly: GABA-stimulated 36Cl uptake in rat cerebral cortical synaptoneurosomes. Type of data set: biochemical, rat (male Sprague-Dawley).
The next data set relates to open-field activity. Nature of the data set: Open-field activity test. Type of data set: in vivo, mice (male N.I.H. Swiss-Webster). As to conditions: for total distance, open-field: 20 mg/kg, 10 min, vehicle 2004.6 ± 134.6; for effect on open-field activity: steroids 20 mg/kg, diazepam 10 mg/kg. The text has this:
The light/dark transition test (Crawley and Goodwin, 1980) is based on the observation that rodents naturally tend to explore novel environments, but open, brightly lit arenas are aversive to the rodents and inhibit exploratory behavior (Christmas and Maxwell, 1970; File, 1980). […] Similar to the light/dark transition test, the open-field test measures the antagonism between the tendency to explore a novel environment and the tendency to remain still in an aversive environment (brightly lit arena). […] The open-field test provides a simple, non-punished assessment of the potential anxiolytic properties of novel compounds. Finally, 3α-OH-DHP was tested for anxiolytic properties in a Vogel conflict paradigm. The ability of BZs to attenuate the suppression of behavior by punishment in conflict paradigms is well established (Gellar et al., 1962; Vogel et al., 1971).
Male N.I.H. Swiss-Webster mice (Harlan) weighing 15-20 g were used in all experiments. The mice were housed 4/cage in polyethylene cages with sawdust bedding. The colony room was environmentally controlled (22° C.) with a 12 hr. light/dark cycle (0600-1800 hrs.). The mice had free access to food and water. The experiments were run from 0700-1500 hrs. and groups were counterbalanced for time of day effects.
As a secondary measure of anxiolytic effects, naive mice were placed in the center of a large, brightly lit plexiglass box (42×42×30.5 cm) and the total distance traveled was measured during a 10 min. test period. […] The Digiscan Activity Monitor (Omnitech Electronics, Columbus, Ohio) includes 16 photobeams that surround the box. The activity monitor is linked to a computer through a Digiscan Analyzer (Omnitech Electronics) and the data is analyzed using the Integrated Lab Animal Monitoring System (Omnitech Electronics). The mice were administered drugs as described for light/dark transitions.
2-Hydroxypropyl β-cyclodextrin Diazepam and chlordiazepoxide are available from Sigma, Co. (St. Louis, Mo.). CGS-8216 was obtained from Ciba-Geigy (Summit, N.J.). All drugs were dissolved in 20% β-cyclodextrin in water and sonicated overnight. All drugs were administered intraperitoneally in a volume of 100 μL/20 g. CGS-8216 was administered subcutaneously in a volume of 100 μL/20 g.
(§1) The vehicle control data were analyzed across test days using an 1-way analysis of variance (ANOVA). […] The dose-response curves were then analyzed using an 1-way ANOVA, followed by Dunnett's t-test for individual comparisons between doses and control. The open-field and habituated locomotor data were analyzed using ANOVA followed by Dunnett's t-test. […] All data is expressed as the mean±S.E.M.

The test system of a further data set is locomotor activity. Nature of the data set: Locomotor activity in habituated mice. It is filed as in vivo, mice (male N.I.H. Swiss-Webster). On the procedure: For evaluation of a drug's effects on general activity, mice were first habituated to the open-field apparatus for 15 min. The following day, mice were pretreated with a test drug and placed in the center of the activity chambers. The total distance traveled was measured for 10 min.
as §1

The test system of data set [3] is maximal electroshock seizure. As to conditions: dissolved in DMSO; Belelli et al., 1989; cited from earlier work.
Data set [4] concerns metrazol-induced convulsions. As to conditions: dissolved in DMSO; Belelli et al., 1989; cited from earlier work.
In data set [5] the test system is (+)bicuculline-induced seizures. The note with it: dissolved in DMSO; Belelli et al., 1989; cited from earlier work.
Data set [6] has as its system strychnine-induced convulsions. The note with it: dissolved in DMSO; Belelli et al., 1989; cited from earlier work.
For data set [7], the system named is sedative potential (rotorod). The note with it: dissolved in DMSO; Belelli et al., 1989; cited from earlier work.
Data set [8] deals with sedative potential (rotorod). Put plainly: Rotorod test. As to conditions: rotorod ED50 vs (+)bicuculline ED50. Background: In the rotarod test animals must keep their balance on a rotating rod.
Protocol: Adult male CFI mice (20-30g) were used in these studies. […] Ten to twelve mice were used per dose of test drug. […] Sedative potential was determined by a rotorod test where the number of mice staying on a rotating (6 rpm) rod for ≥1 min. in each of three trials was determined.
A short description of another data set: Rotorod test. The note with it: mouse, in vivo, ip.
The mark [9] stands for this setting: Na pentobarbital 30 μM, 2 nM [35S]TBPS.

Molecules are shown by their SMILES.

Take `CC(=O)[C@H]1CC[C@H]2[C@@H]3CC[C@H]4C[C@H](O)CC[C@]4(C)[C@H]3CC[C@]12C` [Example 3α-OH-DHP, 3α-hydroxy-5α-pregnan-20-one]: in data set [1] (Na pentobarbital 30 μM), the “Total percentage of specific sites, rapid (R)” value was found to be 35 ± 3% and the “Total percentage of specific sites, slow (S)” value worked out at 68 ± 3%. In data set [1] (setting [9]), the “K-1, slowly dissociating component (S)” value came out at 0.011 ± 0.002 min⁻¹; the “T1/2, rapidly dissociating component (R)” value worked out at 6.4 ± 1 min; the “T1/2, slowly dissociating component (S)” value was found to be 76 ± 11 min. Further, the “biphasic dissociation mechanism of [35S]TBPS” value in data set [1] (pentobarbital 30 μM, FIGS. 2A, 2B) is “absent”. In addition, the “interaction with pentobarbital in the enhancement of [3H]FLU binding” value in the data set on BZ receptor was “does not interact”. Also, in [2] (3α-OH-DHP 500 nM alone, GABA 25 μM, FIG. 4), the “enhancement of GABA-stimulated 36Cl uptake above GABA alone” value is 60%. Also, the “% enhancement of basal 36Cl uptake” value in [2] (GABA (25 μM) + 3α-OH-DHP (500 nM)) is recorded as 194 ± 8%. In addition, the “effect on basal 36Cl uptake” value in [2] (steroid alone, no GABA) is recorded as “no effect”. In addition, in the data set on open-field activity, the “total distance, open-field” value is on record as 5344.9 ± 754.5 cm and the “effect on open-field activity” value was “significant (p<0.01) increases in activity”. Besides, the “total distance traveled, acclimated mice” value in the data set on locomotor activity (3α-OH-DHP 20 mg/kg, controls 2061.2±157.7 cm, p<0.01) worked out at 5694.7±608.4 cm. In addition, the “effect on locomotor activity” value in the data set on locomotor activity (acclimated mice) is listed as “significant increase in locomotor activity”. In data set [3], the “ED50 MES (maximal electroshock)” value is above 300 mg/kg. In addition, the “ED50 MTZ (metrazol)” value in data set [4] was 18.8 ± 1.1 mg/kg. The “ED50 BIC (bicuculline)” value in data set [5] was 4.1 ± 1.7 mg/kg. Further, the “ED50 STR (strychnine)” value in data set [6] was above 300 mg/kg. The “ED50 RR (Rotorod)” value in data set [7] is 40 to 100 mg/kg. Moreover, the “sedative liability at anticonvulsant doses” value in data set [8] is listed as “low”.
On to `C[C@]12CC[C@@H](O)C[C@@H]1CC[C@@H]1[C@@H]2CC[C@]2(C)[C@@H](C(=O)CO)CC[C@@H]12` [Example 5α-THDOC, 3α,21-dihydroxy-5α-pregnan-20-one], for which, in the data set with open-field activity, the “total distance, open-field” value worked out at 7328.4 ± 769.5 cm and the “effect on open-field activity” value is “significant (p<0.01) increases in activity”. The TD50 in “Rotorod test” worked out at 22.9 mg/kg.
